Results from paper PMC9569529, “Safe and Efficient Sigma1 Ligand: A Potential Drug Candidate for Multiple Sclerosis” (International Journal of Molecular Sciences, 2022).

Experiments:
HepG2 = assay: Cytotoxicity analysis in HepG2 cells; assay type: cell-based, human; conditions: % at 10 µM
Procedure: Cytotoxicity analysis was performed by Eurofins Cerep (Poitiers, France) according to [74]. Compound 7i was evaluated at 10 µM in the HepG2 cell line. Cell number, nuclear size, mitochondrial membrane potential, intracellular free calcium and membrane permeability were analyzed. % inhibition or % increase were calculated.

SH-SY5Y = system: SH-SY5Y; design: method as in PMID 28756263; conditions: cited from earlier work
[1] = system: 40 different receptors relevant to CNS disease; design: method as in PMID 28756263; conditions: 40 receptors relevant to CNS disease; cited from earlier work
CYP1A2 = assay: CYP induction in human hepatocytes (mRNA, qPCR); assay type: in vitro ADME; conditions: 10 µM
Procedure: (§1) The compound was classically evaluated at 10 µM for all the ADME analyses. Bidirectional permeability (apical A to basolateral B pH 6.5/7.4 and basolateral B to apical A pH 7.4/6.5) was assessed in the epithelial colorectal adenocarcinoma cell line (Caco-2 cell line). Results were expressed as × 10^−6cm/s (Papp) and as % recovery. Efflux ratio, i.e., Papp(B-A)/Papp(A-B), was calculated. Plasma protein binding was analyzed by HPLC-MS/MS after 4-h incubation at 37 °C, as described by Banker et al.. Concentration was evaluated by LC/MS-MS. CYP inhibition was performed in human liver microsomes as described in [61]. Analysis of the respective metabolites. was performed by HPLC-MS/MS. Transporter inhibition analysis was also performed in overexpressing cell lines. Respective metabolites for each specific transporter substrate were analyzed by fluorometry or scintillation counting and % inhibition of control values were calculated. P-glycoprotein transporter substrate assessment was performed by bidirectional permeability analysis (apical A to basolateral B pH 7.4/7.4 and basolateral B to apical A pH 7.4/7.4) in the Caco-2 cell line with and without verapamil, as described in [59]. Results were expressed as ×10^−6 cm/s (Papp) and as % recovery. The efflux ratio, i.e., Papp(B-A)/Papp(A-B), was calculated. CYP450 induction characterization was performed on human hepatocytes. The mRNA levels of 7 different CYPs were analyzed by qPCR, as described in [72]. The compound was evaluated at 1, 10 and 100 µM. Fold-induction values were determined and compared to cut-off values, as defined for each CYP isozyme in each hepatocyte lot.

CYP3A4 = assay: CYP induction in human hepatocytes (mRNA, qPCR); assay type: in vitro ADME; conditions: 10 µM
Procedure: as §1

CYP2B6 = assay: CYP induction in human hepatocytes (mRNA, qPCR); assay type: in vitro ADME; conditions: 10 µM
Procedure: as §1

P-gp [2] = biological target: T1, P-gp (Homo sapiens, UniProt P08183); assay: P-gp substrate assessment, Caco-2 with and without verapamil; assay type: in vitro ADME
T1 construct: in the Caco-2 cell line with and without verapamil; host or cells: Caco-2
T1 sequence (P08183 whole entry): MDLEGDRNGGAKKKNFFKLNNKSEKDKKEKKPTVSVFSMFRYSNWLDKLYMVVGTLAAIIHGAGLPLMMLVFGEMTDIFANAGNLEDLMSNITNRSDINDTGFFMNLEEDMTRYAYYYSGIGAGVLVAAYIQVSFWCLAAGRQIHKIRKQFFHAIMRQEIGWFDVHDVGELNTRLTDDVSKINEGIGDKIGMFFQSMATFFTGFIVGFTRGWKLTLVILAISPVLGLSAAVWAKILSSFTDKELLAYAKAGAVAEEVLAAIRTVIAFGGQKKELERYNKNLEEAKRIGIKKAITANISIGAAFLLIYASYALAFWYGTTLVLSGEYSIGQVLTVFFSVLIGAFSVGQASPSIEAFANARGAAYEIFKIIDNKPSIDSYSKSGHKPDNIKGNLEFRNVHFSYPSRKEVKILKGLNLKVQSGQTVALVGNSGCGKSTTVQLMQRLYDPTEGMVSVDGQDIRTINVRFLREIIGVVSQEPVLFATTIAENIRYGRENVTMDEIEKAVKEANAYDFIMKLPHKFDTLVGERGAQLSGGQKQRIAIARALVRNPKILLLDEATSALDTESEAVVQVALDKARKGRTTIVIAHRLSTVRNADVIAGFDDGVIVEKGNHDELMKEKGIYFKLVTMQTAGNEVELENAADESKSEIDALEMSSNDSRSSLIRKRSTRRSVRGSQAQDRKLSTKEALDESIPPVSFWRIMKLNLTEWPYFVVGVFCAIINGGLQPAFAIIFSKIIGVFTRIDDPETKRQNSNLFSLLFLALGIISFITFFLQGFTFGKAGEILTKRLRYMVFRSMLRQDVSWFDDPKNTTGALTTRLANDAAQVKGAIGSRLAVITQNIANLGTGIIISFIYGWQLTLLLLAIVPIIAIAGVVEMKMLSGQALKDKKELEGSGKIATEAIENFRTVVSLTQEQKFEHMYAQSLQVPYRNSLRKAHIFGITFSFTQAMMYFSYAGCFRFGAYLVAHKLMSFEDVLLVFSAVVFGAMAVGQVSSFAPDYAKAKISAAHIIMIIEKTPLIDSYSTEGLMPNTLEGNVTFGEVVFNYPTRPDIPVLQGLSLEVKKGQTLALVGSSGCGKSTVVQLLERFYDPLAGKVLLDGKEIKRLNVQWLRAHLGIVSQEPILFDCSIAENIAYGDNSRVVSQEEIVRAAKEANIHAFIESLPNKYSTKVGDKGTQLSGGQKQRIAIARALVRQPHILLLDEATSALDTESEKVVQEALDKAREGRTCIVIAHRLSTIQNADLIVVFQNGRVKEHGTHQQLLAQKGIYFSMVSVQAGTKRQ
Procedure: as §1

P-gp [3] = system: T2, P-gp; assay: as above; assay type: in vitro ADME; conditions: human
T2 construct: in the Caco-2 cell line with and without verapamil; host or cells: Caco-2
Procedure: as §1

Caco-2 cell line = assay: Bidirectional permeability in Caco-2 (pH 6.5/7.4); assay type: in vitro ADME, human; conditions: Papp(B-A)/Papp(A-B), pH 6.5/7.4
Procedure: as §1

five bacterial strains = assay: Ames test, overall conclusion on five bacterial strains; conditions: ±S9, 0.37 to 40 µg/plate
[4] = system: experimental autoimmune encephalomyelitis (EAE); assay: Relapsing EAE (PLP 139-151), curative protocol; assay type: in vivo, female SJL/J mice
TK6 cells = assay: In vitro micronucleus test
Procedure: The frequency of micronucleated (MN) cells was determined out of at least 2000 mononucleated cells.

S. typhimurium TA1535 = conditions: 7i 40 µg/plate
[5] = 3 h treatment + 24 h recovery, +S9, 68.75 µg/mL
[6] = 3 h treatment + 24 h recovery, +S9, 137.5 µg/mL
[7] = 3 h treatment + 24 h recovery, +S9, 275 µg/mL
[8] = 3 h treatment + 24 h recovery, −S9, 68.78 µg/mL
[9] = 3 h treatment + 24 h recovery, −S9, 137.5 µg/mL
[10] = 3 h treatment + 24 h recovery, −S9, 275 µg/mL
[11] = 27 h continuous treatment, −S9, 68.75 µg/mL
[12] = 27 h continuous treatment, −S9, 137.5 µg/mL
[13] = 27 h continuous treatment, −S9, 275 µg/mL

With `CN(CCCNC(=O)c1ccc(Cl)cc1)Cc1ccccc1` [compound 7i] the “HepG2 Cell number” value (HepG2) was −3%, the “HepG2 Intracell free calcium” value (HepG2) was 0% and the “HepG2 Membrane permeability” value (HepG2) was 0%. The “HepG2 Mitochondrial membrane potential” value (HepG2) was 5%, the “HepG2 Nuclear size” value (HepG2) was 9% and the “Inhibition SH-SY5Y (% at 100 µM)” value (SH-SY5Y; 100 µM) was 28%. The cytotoxicity (SH-SY5Y) was “no cytotoxicity”, the off-target selectivity profile [1] was “excellent highly selective profile” and the “modulation of CYP1A2 (induction, conclusion)” value (CYP1A2; three donors) was “No modulation”. The “CYPs induction CYP1A2, donor #1” value (CYP1A2; donor #1, cut-off (2)) was 2.7%, the “CYPs induction CYP1A2, donor #2” value (CYP1A2; donor #2, cut-off (5)) was 1.5% and the “CYPs induction CYP1A2, donor #3” value (CYP1A2; donor #3, cut-off (2)) was 1.9%. The “modulation of CYP3A4 (induction, conclusion)” value (CYP3A4; three donors) was “No modulation”, the “CYPs induction CYP3A4, donor #1” value (CYP3A4; donor #1, cut-off (4)) was 4.2% and the “CYPs induction CYP3A4, donor #2” value (CYP3A4; donor #2, cut-off (6)) was 1.6%. The “CYPs induction CYP3A4, donor #3” value (CYP3A4; donor #3, cut-off (3)) was 0.8%, the “modulation of CYP2B6 (induction, conclusion)” value (CYP2B6; three donors) was “No modulation” and the “CYPs induction CYP2B6, donor #1” value (CYP2B6; donor #1, cut-off (3)) was 4.1%. For the same molecule, the “CYPs induction CYP2B6, donor #2” value (CYP2B6; donor #2, cut-off (4)) was 4.1%, the “CYPs induction CYP2B6, donor #3” value (CYP2B6; donor #3, cut-off (2)) was 4.2% and the “P-gp substrate (conclusion)” value (P-gp [2]; comparison of efflux ratios with/without verapamil) was “not a substrate”. It also gave a Papp A→B at 10 µM (P-gp [2]; human, pH 7.4, Caco-2, 10 µM, PBS (no verapamil), read-out: P-gp substrate, PBS, A/B pH7.4/7.4) of 45.8 ×10⁻⁶ cm/s, a Papp B→A at 10 µM (P-gp [2]; human, pH 7.4, Caco-2, 10 µM, PBS (no verapamil), read-out: P-gp substrate, PBS, B/A pH7.4/7.4) of 11.7 ×10⁻⁶ cm/s and an efflux ratio at 10 µM (P-gp [2]; human, Caco-2, pH 7.4/7.4, PBS (no verapamil), read-out: P-gp substrate, PBS, e-ratio) of 0.3. It also gave a Papp A→B at 10 µM (P-gp [3]; pH 7.4, Caco-2, 10 µM, with verapamil, read-out: P-gp substrate, Verapamil, A/B pH7.4/7.4) of 28 ×10⁻⁶ cm/s, a Papp B→A at 10 µM (P-gp [3]; pH 7.4, Caco-2, 10 µM, with verapamil, read-out: P-gp substrate, Verapamil, B/A pH7.4/7.4) of 16.9 ×10⁻⁶ cm/s and an efflux ratio at 10 µM (P-gp [3]; Caco-2, pH 7.4/7.4, with verapamil, read-out: P-gp substrate, Verapamil, e-ratio) of 0.6. The “e-ratio (efflux ratio)” value (Caco-2 cell line) was 2.3, the “mutagenic effects (Ames, conclusion)” value (five bacterial strains) was “no mutagenic effects” and the EAE global evolution ([4]; 0.5 mg/kg i.p. daily for 15 days from score 2, followed 80 days) was “significantly reduced”. The EAE course ([4]; 0.5 mg/kg p.o. daily for 15 days from score 2) was “significant decrease”, the “effect on EAE development after BD-1047 pretreatment” value ([4]; BD-1047 10 mg/kg i.p. 20 min before 7i) was “blocked” and the second relapse ([4]; i.p., 0.5 and 1 mg/kg daily for 15 days) was “No second relapse”. The “effect on clinical score during treatment (first relapse)” value ([4]; i.p., 0.5 and 1 mg/kg, more pronounced at 1 mg/kg) was “visible from the first days of treatment”, the “maximal clinical grade during the entire disease course” value ([4]; orally treated animals) was no more than 2 grade and the “clinical grade reached during the 15 days of administration” value ([4]; p.o. 0.5 mg/kg) was 1 grade. For the same molecule, the “rebound effect after end of treatment” value ([4]; p.o., as in i.p. administration) was “No rebound effect”, the “MN/2 × 10^3 Cells” value (TK6 cells; [5]) was 10.5 and the “RS (%)” value (TK6 cells; [5]) was 106.1%. The “MN/2 × 10^3 Cells” value (TK6 cells; [6]) was 6.0, the “RS (%)” value (TK6 cells; [6]) was 97.2% and the “MN/2 × 10^3 Cells” value (TK6 cells; [7]) was 9.0. The “RS (%)” value (TK6 cells; [7]) was 103.7%, the “MN/2 × 10^3 Cells” value (TK6 cells; [8]) was 6.0 and the “RS (%)” value (TK6 cells; [8]) was 94.1%. The “MN/2 × 10^3 Cells” value (TK6 cells; [9]) was 8.0, the “RS (%)” value (TK6 cells; [9]) was 92.7% and the “MN/2 × 10^3 Cells” value (TK6 cells; [10]) was 8.0. The “RS (%)” value (TK6 cells; [10]) was 80.0%, the “MN/2 × 10^3 Cells” value (TK6 cells; [11]) was 1.0 and the “RS (%)” value (TK6 cells; [11]) was 86.6%. For the same molecule, the “MN/2 × 10^3 Cells” value (TK6 cells; [12]) was 7.0, the “RS (%)” value (TK6 cells; [12]) was 84.2% and the “MN/2 × 10^3 Cells” value (TK6 cells; [13]) was 6.0. The “RS (%)” value (TK6 cells; [13]) was 70.1%, the “genotoxic characteristics (micronucleus, conclusion)” value (TK6 cells; TK6 cells, ±S9) was “no genotoxic characteristics” and the “Ames TA1535 +S9 (Mean revertants/well per title)” value (S. typhimurium TA1535; +S9, positive control 2-anthramine 0.5) was 0.9. For the same molecule, the “Ames TA1535 −S9 (Mean revertants/well per title)” value (S. typhimurium TA1535; −S9, positive control MNNG 0.25) was 1.3.
